These molecules were tested against T1, HCMV polymerase (Human cytomegalovirus, UniProt P08546) (assay: HCMV polymerase assay (scintillation proximity assay)). Details: percentage of inhibition at 25 μM concentration in CMV polymerase assay.
T1 construct: made in house; host or cells: SF-9 insect cells infected with recombinant baculovirus
Format: biochemical
Method in brief: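 Baculovirus/SF-9-expressed HCMV polymerase in 5.4 mM HEPES pH 7.5, 11.7 mM KCl, 4.5 mM MgCl2, 0.36 mg/ml BSA, 90 nM 3H-dTTP, with or without 2 mM CHAPS. Started with 6 nM biotinylated poly(dA)-oligo(dT), 30 min at 25 or 37 °C, EDTA-stopped, read by streptavidin-SPA counting; % inhibition at 25 μM.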

T1 sequence (P08546 whole entry): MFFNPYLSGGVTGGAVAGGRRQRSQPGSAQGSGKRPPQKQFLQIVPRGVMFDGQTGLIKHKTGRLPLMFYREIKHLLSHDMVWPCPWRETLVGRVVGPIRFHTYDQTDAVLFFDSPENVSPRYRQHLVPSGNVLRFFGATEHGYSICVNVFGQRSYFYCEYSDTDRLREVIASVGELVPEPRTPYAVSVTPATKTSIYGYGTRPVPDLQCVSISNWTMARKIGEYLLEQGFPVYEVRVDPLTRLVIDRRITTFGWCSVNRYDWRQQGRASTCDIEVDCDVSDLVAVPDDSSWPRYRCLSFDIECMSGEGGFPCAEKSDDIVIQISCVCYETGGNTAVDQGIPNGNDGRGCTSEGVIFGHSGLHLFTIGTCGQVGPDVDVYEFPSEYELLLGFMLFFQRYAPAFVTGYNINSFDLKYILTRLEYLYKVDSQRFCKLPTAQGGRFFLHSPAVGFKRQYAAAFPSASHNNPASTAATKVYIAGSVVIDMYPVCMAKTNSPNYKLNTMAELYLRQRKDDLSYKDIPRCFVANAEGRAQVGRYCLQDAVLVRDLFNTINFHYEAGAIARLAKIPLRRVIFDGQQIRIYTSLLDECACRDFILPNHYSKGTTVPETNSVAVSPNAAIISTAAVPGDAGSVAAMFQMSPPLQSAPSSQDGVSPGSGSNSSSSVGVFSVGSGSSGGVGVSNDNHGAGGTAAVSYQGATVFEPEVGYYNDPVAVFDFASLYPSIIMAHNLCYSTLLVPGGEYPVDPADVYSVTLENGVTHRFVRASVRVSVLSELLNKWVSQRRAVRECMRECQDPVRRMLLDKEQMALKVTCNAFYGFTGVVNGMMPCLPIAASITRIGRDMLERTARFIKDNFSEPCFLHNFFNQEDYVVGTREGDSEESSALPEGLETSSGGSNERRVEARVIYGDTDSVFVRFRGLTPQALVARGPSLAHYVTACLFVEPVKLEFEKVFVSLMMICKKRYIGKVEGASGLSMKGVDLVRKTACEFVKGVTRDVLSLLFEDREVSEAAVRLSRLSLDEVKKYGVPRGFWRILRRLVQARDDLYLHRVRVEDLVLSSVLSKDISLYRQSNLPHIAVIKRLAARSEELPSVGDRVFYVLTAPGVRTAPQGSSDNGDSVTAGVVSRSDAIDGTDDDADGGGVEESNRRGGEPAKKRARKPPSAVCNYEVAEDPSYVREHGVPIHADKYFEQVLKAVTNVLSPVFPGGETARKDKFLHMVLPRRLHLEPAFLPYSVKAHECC

Compared with `CC(C)c1cc(C(C)C)c(C(=O)Nc2nnc(NC[C@@H]3CCC4CC3C4(C)C)s2)c(C(C)C)c1` (stereo partly drawn) [compound 440, N-[5-({[(2R)-6,6-dimethylbicyclo[3.1.1]hept-2-yl]methyl}amino)-1,3,4-thiadiazol-2-yl]-2,4,6-triisopropylbenzamide], `CC(C)c1cc(C(C)C)c(C(=O)Nc2nnc(NCCN(C)C)s2)c(C(C)C)c1` [compound 444, N-(5-{[2-(dimethylamino)ethyl]amino}-1,3,4-thiadiazol-2-yl)-2,4,6-triisopropylbenzamide] is lower in inhibition at 25 µM: 22.5% for the first, 21.9% for the second.

Going from `CCCCCCCCCCCNc1nnc(NC(=O)c2c(C(C)C)cc(C(C)C)cc2C(C)C)s1` [compound 441, 2,4,6-triisopropyl-N-[5-(undecylamino)-1,3,4-thiadiazol-2-yl]benzamide] to `CC(C)c1cc(C(C)C)c(C(=O)Nc2nnc(NCc3ccco3)s2)c(C(C)C)c1` [compound 442, N-{5-[(2-furylmethyl)amino]-1,3,4-thiadiazol-2-yl}-2,4,6-triisopropylbenzamide], the inhibition at 25 µM falls from 22.5% to 22.3%.

First: O=C(/C=C/c1ccccc1Cl)Nc1nnc(NCc2cccc3ccccc23)s1 [compound 443, (E)-3-(2-chlorophenyl)-N-{5-[(1-naphthylmethyl)amino]-1,3,4-thiadiazol-2-yl]-2propenamide]
Second: Cc1ccc(C(=O)Nc2nnc(NCc3cccc4ccccc34)s2)cc1 [compound 457, 4-methyl-N-{5-[(1-naphthylmethyl)amino]-1,3,4-thiadiazol-2-yl}benzamide]
The inhibition at 25 µM of the first is higher: 22.1% for the first, 20.7% for the second.

Compared with `O=C(Nc1nnc(NCCc2cccs2)s1)c1ccc(F)cc1F` [compound 445], `O=C(Nc1nnc(NCCc2c[nH]c3ccccc23)s1)c1cc(F)cc(F)c1` [compound 458, 3,5-difluoro-N-(5-{[2-(1H-indol-3-yl)ethyl]amino}-1,3,4-thiadiazol-2-yl)benzamide] is lower in inhibition at 25 µM: 21.9% for the first, 20.7% for the second.

Going from `NS(=O)(=O)c1ccc(CCNc2nnc(NC(=O)c3ccc(C(F)(F)F)cc3)s2)cc1` [compound 446, N-(5-{[4-(aminosulfonyl)phenethyl]amino}-1,3,4-thiadiazol-2-yl)-4-(trifluoromethyl)benzamide] to `O=C(Nc1nnc(NCCc2c[nH]cn2)s1)c1ccc(I)cc1` [compound 454, N-(5-{[2-(1H-imidazol-4-yl)ethyl]amino}-1,3,4-thiadiazol-2-yl)-4-iodobenzamide], the inhibition at 25 µM falls from 21.8% to 21.2%.

Going from `CCSCCNc1nnc(NC(=O)c2ccc(Cl)c(Cl)c2)s1` [compound 447, 3,4-dichloro-N-(5-{[2-(ethylsulfanyl)ethyl]amino]-1,3,4-thiadiazol-2-yl)benzamide] to `CCCCC(CC)CNc1nnc(NC(=O)c2ccc(Cl)c(Cl)c2)s1` (stereo not drawn) [compound 461, 3,4-dichloro-N-{5-[(2-ethylhexyl)amino]-1,3,4-thiadiazol-2-yl}benzamide], the inhibition at 25 µM falls from 21.6% to 20.6%.

First: O=C(Nc1nnc(NCCc2c[nH]cn2)s1)c1c(Cl)cccc1Cl [compound 448, 2,6-dichloro-N-(5-{[2-(1H-imidazol-4-yl)ethyl]amino}-1,3,4-thiadiazol-2-yl)benzamide]
Second: O=C(Nc1nnc(NCc2ccc(Cl)c(Cl)c2)s1)c1cccc([N+](=O)[O-])c1 [compound 462, N-{5-[(3,4-dichlorobenzyl)amino]-1,3,4-thiadiazol-2-yl}-3-nitrobenzamide]
The inhibition at 25 µM of the first is higher: 21.6% for the first, 20.5% for the second.

First: Cc1ccc(C(=O)Nc2nnc(NCC3CCCCC3)s2)cc1 [compound 449, N-{5-[(cyclohexylmethyl)amino]-1,3,4-thiadiazol-2-yl}-4-methylbenzamide]
Second: O=C(Nc1nnc(NCC2CC2)s1)c1ccc(I)cc1 [compound 470, N-{5-[(cyclopropylmethyl)amino]-1,3,4-thiadiazol-2yl}-4-iodobenzamide]
The inhibition at 25 µM of the first is higher: 21.5% for the first, 20% for the second.

First: CCOc1ccc2ccccc2c1C(=O)Nc1nnc(NCC2CCCO2)s1 (stereo not drawn) [compound 450, 2-ethoxy-N-{5-[(tetrahydro-2-furanylmethyl)amino]-1,3,4-thiadiazol-2-yl}-1-naphthamide]
Second: CCOc1ccc2ccccc2c1C(=O)Nc1nnc(NCCNC(C)=O)s1 [compound 463, N-(5-{[2-(acetylamino)ethyl]amino}-1,3,4-thiadiazol-2-yl)-2-ethoxy-1-naphthamide]
The inhibition at 25 µM of the first is higher: 21.4% for the first, 20.3% for the second.

Going from `O=C(Nc1nnc(NCc2ccc(F)cc2)s1)c1cc(F)cc(F)c1` [compound 451, 3,5-difluoro-N-{5-[(4-fluorobenzyl)amino]-1,3,4-thiadiazol-2-yl}benzamide] to `O=C(Nc1nnc(NC2CCCc3ccccc32)s1)c1cc(F)cc(F)c1` (stereo not drawn) [compound 468, 3,5-difluoro-N-[5-(1,2,3,4-tetrahydro-1-naphthalenylamino)-1,3,4-thiadiazol-2-yl]benzamide], the inhibition at 25 µM falls from 21.4% to 20.1%.

Going from `COc1ccccc1C(=O)Nc1nnc(NCc2ccc(Cl)c(Cl)c2)s1` [compound 452, N-{5-[(3,4-dichlorobenzyl)amino]-1,3,4-thiadiazol-2-yl}-2-methoxybenzamide] to `O=C(Nc1nnc(NCc2ccc3c(c2)OCO3)s1)c1ccc(I)cc1` [compound 459, N-{5-[(1,3-benzodioxol-5-ylmethyl)amino]-1,3,4-thiadiazol-2-yl}-4-iodobenzamide], the inhibition at 25 µM falls from 21.3% to 20.7%.

Going from `O=C(Nc1nnc(NCCN2CCOCC2)s1)c1cc2ccccc2s1` [compound 453, N-{5-[(2-morpholinoethyl)amino]-1,3,4-thiadiazol-2-yl}-1-benzothiophene-2-carboxamide] to `O=C(Nc1nnc(NCCN2CCOCC2)s1)c1cccc([N+](=O)[O-])c1` [compound 469, N-{5-[(2-morpholinoethyl)amino]-1,3,4-thiadiazol-2-yl}-3-nitrobenzamide], the inhibition at 25 µM falls from 21.2% to 20.1%.

`O=C(Nc1nnc(NC2CCN(Cc3ccccc3)CC2)s1)c1ccc(Br)cc1` [compound 455, N-{5-[(1-benzyl-4-piperidinyl)amino]-1,3,4-thiadiazol-2-yl}-4-bromobenzamide] and `O=C(Nc1nnc(NC2CCN(Cc3ccccc3)CC2)s1)c1ccc([N+](=O)[O-])o1` [compound 456, N-{5-[(1-benzyl-4-piperidinyl)amino]-1,3,4-thiadiazol-2-yl}-5-nitro-2-furamide] are the same in inhibition at 25 µM: 20.8% for the first, 20.8% for the second.

Compared with `N#Cc1ccc(C(=O)Nc2nnc(NCCN3CCOCC3)s2)cc1` [compound 464, 4-cyano-N-{5-[(2-morpholinoethyl)amino]-1,3,4-thiadiazol-2-yl}benzamide], `CN1CCN(CCCNc2nnc(NC(=O)c3ccc(I)cc3)s2)CC1` [compound 467] is lower in inhibition at 25 µM: 20.3% for the first, 20.1% for the second.

Compared with `O=C(/C=C/c1ccccc1)Nc1nnc(NC2CC2)s1` [compound 465, (E)-N-[5-(cyclopropylamino)-1,3,4-thiadiazol-2-yl]-3-phenyl-2-propenamide], `CCSCCNc1nnc(NC(=O)c2cc3ccccc3s2)s1` [compound 466, N-(5-{[2-(ethylsulfanyl)ethyl]amino}-1,3,4-thiadiazol-2-yl)-1-benzothiophene-2-carboxamide] is lower in inhibition at 25 µM: 20.2% for the first, 20.1% for the second.

`N#Cc1ccc(C(=O)Nc2nnc(NCc3ccc4c(c3)OCO4)s2)cc1` [compound 471, N-{5-[(1,3-benzodioxol-5-ylmethyl)amino]-1,3,4-thiadiazol-2-yl}-4-cyanobenzamide] showed an inhibition at 25 µM of 20%.

Compared with `O=C(Nc1nnc(NC2CCN(Cc3ccccc3)CC2)s1)c1ccc(S(=O)(=O)F)cc1` [compound 460, 4-[({5-[(1-benzyl-4-piperidinyl)amino]-1,3,4-thiadiazol-2-yl}amino)carbonyl]benzenesulfonyl fluoride], `O=C(Nc1nnc(NCCc2ccccc2)s1)c1ccc(S(=O)(=O)F)cc1` [compound 472, 4-({[5-(phenethylamino)-1,3,4-thiadiazol-2-yl]amino}carbonyl)benzenesulfonyl fluoride] is lower in “% Inhib” value: 20.7% for the first, 20.0% for the second.

Reference: patent US6150385A, “1,3,4-thiadiazoles useful for the treatment of CMV infections” (Pharmacia & Upjohn Company, priority 1999, dated 2000)
